Counter-ions that a name gives are not always drawn. Like-named read-outs stand apart in the source and are kept apart here.
Columns and labels:
[1] = tested on: pRb (Ser780 phosphorylation state of RB1) in MCF-7 cells; assay: Determination of pRb levels (Ser780 phosphorylation of RB1, ELISA) in MCF-7 cells; assay type: cell-based; conditions: Homo sapiens, 24 h; for inhibition at 0.01 µM: MCF7, 0.01 μM; for inhibition at 0.1 µM: MCF7, 0.1 μM; for inhibition at 1 µM: MCF7, 1 μM
Description: […] of the retinoblastoma protein (pRb) by cyclin D:Cdk4/6 complexes results in […] pRb, which is a clinically relevant biomarker associated with CDK4 or CDK6 inhibition. As a confirmatory measure of functional activity of CDK4/6, the Ser780 phosphorylation state of RB1 was assessed. MCF-7 cells were plated at 2.5×10^5 to 3.0×10^6 cells/well in 6-well cell-culture plates and incubated at 37° C. for 24 h in MEM medium supplemented with 10% FBS. Cells were treated for 24 h with a medium containing test compound at various concentrations (e.g., 0.01, 0.1, 1 μM) or with DMSO (≤1%) in duplicate. After incubation period, the media was removed, and cells were rinsed once with ice-cold PBS and lysed with 0.2 mL of Cell Lysis Buffer containing 1 mM PMSF and Protease Inhibitor. Protein concentration was estimated following Bradford method. The lysis and the pRB measurements were performed following the manufacturer's ELISA kit protocols and buffers (Cell Signaling Technology, Cat. No.: 13016C). pRb inhibition of test compounds were calculated as percentage of vehicle control.

ZR-75-30 = assay: Cancer cell proliferation assay, single agent; assay type: cell-based; conditions: Homo sapiens, Treatment Duration 24 h
DU4475 = assay: Cancer cell proliferation assay, single agent; assay type: cell-based; conditions: Homo sapiens, DU-4475, 168 h, read-out: IC50 DU4475
Hs-578T = assay: Cancer cell proliferation assay, single agent; assay type: cell-based; conditions: Homo sapiens, Treatment Duration 24 h
CDK4 = CDK4 (Homo sapiens (Human), UniProt P11802); assay: In vitro kinase inhibition, luminescence (ADP-Glo) with retinoblastoma substrate; assay type: biochemical
A549 = assay: Cancer cell proliferation assay, single agent; assay type: cell-based; conditions: Homo sapiens, A549, 72 h, read-out: IC50 A549
CDK6 = CDK6 (Homo sapiens (Human), UniProt Q00534); assay: biochemical; assay type: biochemical
MCF-7 = assay: Cancer cell proliferation assay, single agent; assay type: cell-based; conditions: Homo sapiens, read-out: IC50 MCF-7
FMS kinase = FMS kinase (Homo sapiens (Human), UniProt P07333); assay: LanthaScreen kinase assay (ATP, fluorescent-PolyGT substrate, TR-FRET); assay type: biochemical
BT-549 = assay: Cancer cell proliferation assay, single agent; assay type: cell-based; conditions: Homo sapiens, BT-549, 24 h, read-out: IC50 BT-549
HCT-116 = assay: Cancer cell proliferation assay, single agent; assay type: cell-based; conditions: Homo sapiens, Treatment Duration 72 h, read-out: IC50 HCT116
PI3Kδ kinase = PI3Kδ kinase (Homo sapiens (Human), UniProt O00329); assay: PI3Kδ kinase ADP-Glo assay (Reaction Biology Corporation); conditions: read-out: PI3Kδ IC50
CDK2 (cyclin A) = CDK2 (cyclin A) (Homo sapiens (Human), UniProt P24941); assay: Z'-LYTE kinase assay; assay type: biochemical
Description: IC50 values of compounds against CDK2 (cyclin A) were determined by Z'-LYTETM. […] The following equations were used for Z'-LYTETM Screening Assay Data Analysis.

CDK1 (cyclin B) = CDK1 (cyclin B) (Homo sapiens (Human), UniProt P06493); assay: Z'-LYTE kinase assay; assay type: biochemical
Description: The following equations were used for Z′-LYTE™ Screening Assay Data Analysis.

CDK2 (cyclin E1) = CDK2 (cyclin E1) (Homo sapiens (Human), UniProt P24941); assay: LanthaScreen Eu Kinase Binding Assay; conditions: read-out: CDK2/E IC50

Sequence of PI3Kδ kinase (O00329 whole entry): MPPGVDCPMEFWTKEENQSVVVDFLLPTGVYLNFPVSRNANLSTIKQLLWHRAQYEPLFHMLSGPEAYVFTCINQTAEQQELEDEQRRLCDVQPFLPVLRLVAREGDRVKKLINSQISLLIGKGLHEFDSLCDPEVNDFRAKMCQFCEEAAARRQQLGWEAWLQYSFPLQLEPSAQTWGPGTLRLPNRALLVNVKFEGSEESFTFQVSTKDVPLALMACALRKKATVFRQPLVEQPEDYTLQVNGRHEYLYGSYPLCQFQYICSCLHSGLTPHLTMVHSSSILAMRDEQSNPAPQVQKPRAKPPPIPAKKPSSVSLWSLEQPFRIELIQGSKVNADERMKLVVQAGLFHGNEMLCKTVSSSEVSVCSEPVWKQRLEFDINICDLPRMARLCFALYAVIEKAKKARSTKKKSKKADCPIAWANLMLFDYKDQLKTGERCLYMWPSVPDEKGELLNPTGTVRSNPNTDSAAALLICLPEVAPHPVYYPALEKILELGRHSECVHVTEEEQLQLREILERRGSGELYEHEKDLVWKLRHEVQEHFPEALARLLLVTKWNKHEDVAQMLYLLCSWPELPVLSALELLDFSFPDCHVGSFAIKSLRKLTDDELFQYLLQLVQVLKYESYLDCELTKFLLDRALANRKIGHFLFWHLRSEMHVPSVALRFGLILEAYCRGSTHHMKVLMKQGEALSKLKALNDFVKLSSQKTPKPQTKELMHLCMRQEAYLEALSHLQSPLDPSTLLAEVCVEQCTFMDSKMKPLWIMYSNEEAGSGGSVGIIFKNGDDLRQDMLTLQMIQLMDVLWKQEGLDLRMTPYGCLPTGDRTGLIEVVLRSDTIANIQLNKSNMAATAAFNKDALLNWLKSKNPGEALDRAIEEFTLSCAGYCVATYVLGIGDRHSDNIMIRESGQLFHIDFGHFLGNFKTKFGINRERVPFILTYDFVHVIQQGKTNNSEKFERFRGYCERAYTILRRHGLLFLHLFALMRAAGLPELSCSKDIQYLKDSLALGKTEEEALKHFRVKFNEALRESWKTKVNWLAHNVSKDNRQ
Sequence of PI3Kδ kinase (P27986 whole entry partner): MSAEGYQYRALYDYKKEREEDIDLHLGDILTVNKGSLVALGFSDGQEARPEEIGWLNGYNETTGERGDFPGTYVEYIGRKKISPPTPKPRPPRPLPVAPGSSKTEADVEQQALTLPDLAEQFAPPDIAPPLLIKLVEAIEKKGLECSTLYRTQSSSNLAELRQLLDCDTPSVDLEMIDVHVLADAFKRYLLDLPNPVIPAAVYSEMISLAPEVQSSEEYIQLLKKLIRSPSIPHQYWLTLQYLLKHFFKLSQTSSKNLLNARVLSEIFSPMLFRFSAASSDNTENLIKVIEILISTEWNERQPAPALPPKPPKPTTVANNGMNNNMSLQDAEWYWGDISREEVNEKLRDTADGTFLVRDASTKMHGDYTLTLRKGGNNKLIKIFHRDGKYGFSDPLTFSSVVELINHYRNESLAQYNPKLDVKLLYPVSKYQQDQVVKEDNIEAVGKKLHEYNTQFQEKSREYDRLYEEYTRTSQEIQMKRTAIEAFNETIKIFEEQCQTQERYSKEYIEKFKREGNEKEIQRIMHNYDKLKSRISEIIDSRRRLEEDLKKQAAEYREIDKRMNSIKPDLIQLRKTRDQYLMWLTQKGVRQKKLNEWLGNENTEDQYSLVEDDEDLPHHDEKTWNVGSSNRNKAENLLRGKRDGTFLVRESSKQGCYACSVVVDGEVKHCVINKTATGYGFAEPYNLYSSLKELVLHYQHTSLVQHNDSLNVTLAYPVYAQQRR
Sequence of FMS kinase (P07333 20-972): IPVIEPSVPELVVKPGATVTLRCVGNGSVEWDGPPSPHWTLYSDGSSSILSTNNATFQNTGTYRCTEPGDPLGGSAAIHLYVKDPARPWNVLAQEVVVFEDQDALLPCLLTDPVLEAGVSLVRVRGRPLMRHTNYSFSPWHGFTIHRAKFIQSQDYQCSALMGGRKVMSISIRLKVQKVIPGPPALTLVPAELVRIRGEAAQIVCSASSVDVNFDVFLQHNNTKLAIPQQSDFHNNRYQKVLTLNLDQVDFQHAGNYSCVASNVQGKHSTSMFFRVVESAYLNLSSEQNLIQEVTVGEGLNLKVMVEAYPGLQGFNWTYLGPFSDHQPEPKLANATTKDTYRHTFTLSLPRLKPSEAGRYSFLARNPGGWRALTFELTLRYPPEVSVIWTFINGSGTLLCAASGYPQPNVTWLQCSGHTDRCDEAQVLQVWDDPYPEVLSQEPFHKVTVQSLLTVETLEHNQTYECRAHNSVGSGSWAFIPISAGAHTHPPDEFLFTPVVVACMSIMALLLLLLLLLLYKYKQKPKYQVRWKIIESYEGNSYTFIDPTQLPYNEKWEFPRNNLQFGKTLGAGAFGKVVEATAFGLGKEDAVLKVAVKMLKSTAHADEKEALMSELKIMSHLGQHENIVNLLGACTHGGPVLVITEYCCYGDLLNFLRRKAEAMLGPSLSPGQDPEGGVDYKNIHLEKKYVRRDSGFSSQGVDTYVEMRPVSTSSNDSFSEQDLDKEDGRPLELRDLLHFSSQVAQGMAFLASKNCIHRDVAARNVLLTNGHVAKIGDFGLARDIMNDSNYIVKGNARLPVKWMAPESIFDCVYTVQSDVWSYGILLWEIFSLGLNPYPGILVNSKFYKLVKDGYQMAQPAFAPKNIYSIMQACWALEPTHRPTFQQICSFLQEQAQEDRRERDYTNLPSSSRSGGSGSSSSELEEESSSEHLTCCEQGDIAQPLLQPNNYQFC
Sequence of CDK4 (P11802 whole entry): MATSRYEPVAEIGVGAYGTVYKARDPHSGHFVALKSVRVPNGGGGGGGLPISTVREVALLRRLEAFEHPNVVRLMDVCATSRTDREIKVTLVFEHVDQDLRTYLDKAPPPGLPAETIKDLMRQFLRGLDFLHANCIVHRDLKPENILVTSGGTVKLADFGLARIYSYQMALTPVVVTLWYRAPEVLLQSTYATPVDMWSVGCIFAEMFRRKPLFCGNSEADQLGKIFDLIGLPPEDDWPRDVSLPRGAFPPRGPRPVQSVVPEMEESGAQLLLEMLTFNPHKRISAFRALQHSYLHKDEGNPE
Sequence of CDK4 (P24385 whole entry partner): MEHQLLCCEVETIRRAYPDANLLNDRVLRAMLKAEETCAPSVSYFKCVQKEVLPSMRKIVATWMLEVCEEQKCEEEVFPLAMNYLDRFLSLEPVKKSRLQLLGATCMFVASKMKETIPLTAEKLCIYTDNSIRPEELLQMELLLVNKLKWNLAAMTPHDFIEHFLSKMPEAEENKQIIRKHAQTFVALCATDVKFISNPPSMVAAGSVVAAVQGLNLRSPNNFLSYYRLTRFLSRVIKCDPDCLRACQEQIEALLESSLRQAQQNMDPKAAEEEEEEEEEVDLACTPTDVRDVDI
Sequence of CDK1 (cyclin B) (P06493 whole entry): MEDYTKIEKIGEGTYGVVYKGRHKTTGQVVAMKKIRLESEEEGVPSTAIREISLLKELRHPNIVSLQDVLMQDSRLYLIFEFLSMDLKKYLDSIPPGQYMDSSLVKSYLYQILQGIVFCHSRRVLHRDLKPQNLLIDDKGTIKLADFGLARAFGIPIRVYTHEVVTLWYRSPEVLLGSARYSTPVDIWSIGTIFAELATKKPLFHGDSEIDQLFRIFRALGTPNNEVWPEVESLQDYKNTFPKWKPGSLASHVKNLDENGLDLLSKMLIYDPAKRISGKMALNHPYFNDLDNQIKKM
Sequence of CDK1 (cyclin B) (P14635 whole entry partner): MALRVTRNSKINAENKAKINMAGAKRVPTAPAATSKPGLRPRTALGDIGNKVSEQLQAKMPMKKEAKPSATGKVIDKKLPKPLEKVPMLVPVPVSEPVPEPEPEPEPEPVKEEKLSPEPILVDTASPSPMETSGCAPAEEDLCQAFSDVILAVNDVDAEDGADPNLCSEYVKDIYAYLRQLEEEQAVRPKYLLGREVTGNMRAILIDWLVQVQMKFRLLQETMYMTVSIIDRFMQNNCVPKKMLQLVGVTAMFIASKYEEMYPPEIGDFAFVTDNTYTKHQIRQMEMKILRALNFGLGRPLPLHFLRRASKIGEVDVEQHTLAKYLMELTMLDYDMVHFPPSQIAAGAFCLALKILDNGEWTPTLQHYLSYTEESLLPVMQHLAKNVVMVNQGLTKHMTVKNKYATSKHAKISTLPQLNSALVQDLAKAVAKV

SMILES	inhibition at 0.01 µM [1] [%]	inhibition at 0.1 µM [1] [%]	inhibition at 1 µM [1] [%]	IC50 (ZR-75-30) [nM]	IC50 (DU4475) [nM]	IC50 (Hs-578T) [nM]	IC50 (CDK4) [nM]	IC50 (A549) [nM]	IC50 (CDK6) [nM]	IC50 (MCF-7; MCF7, Treatment Duration 72 h) [nM]	IC50 (FMS kinase) [nM]	IC50 (BT-549) [nM]	IC50 (HCT-116) [nM]	IC50 (PI3Kδ kinase) [nM]	IC50 (CDK2 (cyclin A)) [nM]	IC50 (CDK1 (cyclin B)) [nM]	IC50 (CDK2 (cyclin E1)) [nM]	IC50 (MCF-7; MCF7, 72 h) [nM]
CC(C)N1CCOc2c(F)cc(-c3nc(Nc4ccc(N5CCNCC5)cn4)ncc3F)cc21 [Compound 1, 5-fluoro-4-(8-fluoro-4-isopropyl-3,4-dihydro-2H-benzo[b][1,4]oxazin-6-yl)-N-(5-(piperazin-1-yl)pyridin-2-yl)pyrimidin-2-amine]	77	80	89	49	575	60	0.2	65	0.2	68	1330	3200	515	3360	–	–	–	–
CC(C)N1CCOc2c(F)cc(-c3nc(Nc4ccc(N5CCNCC5)c(F)c4)ncc3F)cc21 [Compound 12, 5-fluoro-N-(3-fluoro-4-(piperazin-1-yl)phenyl)-4-(8-fluoro-4-isopropyl-3,4-dihydro-2H-benzo[b][1,4]oxazin-6-yl)pyrimidin-2-amine hydrochloride]	-5	81	81	–	40	–	–	< 13	–	–	29	230	< 13	674	0.7	3.9	7.2	< 10

Source: US11174252B2, “Heterocyclic compounds as kinase inhibitors” (priority 2018, dated 2021)
